Experimental data from patent publication US20100104518A1, “CHEWING GUM, CONFECTION, AND OTHER ORAL DELIVERY VEHICLES CONTAINING A TRADITIONAL CHINESE MEDICINE OR EXTRACT THEREOF” (priority 2006, published 2010).

What was measured:
Assay type in all cases: cell-based
S. mutans [1] = assay: Minimum Inhibitive Concentration test (MIC) of TCM extracts on oral bacteria; conditions: ethanol TCM extract; Schaedler broth, two-fold dilutions, 24 hrs at 37° C.
Description: (§1) To evaluate the germ-kill efficacy, the dried crude TCM bark, stem, leaf or root was ground to powder. 10-50 grams of TCM powder was mixed with 100 ml of ethanol. The mixture was super-sonicated for 10-15 minutes to extract the TCM actives. The mixture was further transferred into a Mixxor solid-liquid phase extractor for extracting about 50 strokes. The solution was filtered by a 0.45 um Millipore filter. For determination of the TCM extract concentration, slight amount of TCM extract sample was accurately weighed on a pre-weighed aluminum weighing dish. It was dried in a 45° C. oven for 2 hours to evaporate ethanol. The sample dish was weighed again, and the concentration of TCM extract was determined as: conc.=(Dry weight−dish weight)/(wet weight−dish weight)×100%.
(§2) The germ-kill efficacy was determined by a Minimum Inhibitive Concentration test (MIC) and a Minimum Bactericidal Concentration (MBC) test. […] The solution was then serially diluted two-fold so that each subsequent dilution contained 50% of the compound concentration of the previous dilution while maintaining a constant level of nutrients for each dilution. These dilutions were inoculated with representative oral microorganisms, and incubated for 24 hrs at 37° C. For each TCM compound, the lowest dilution that was not turbid was registered as the MIC. The MBC was determined by transferring […] of liquid from no-turbid tubes to fresh growth media and incubated for 48 hrs. […] Table A & B list the MIC and MBC data on P. gingivalis, F. nucleatum and S. nutans.

F. nucleatum [2] = assay: as above; conditions: ethanol TCM extract; Schaedler broth, two-fold dilutions, 24 hrs at 37° C.
Description: as §1, §2

P. gingivalis [3] = assay: as above; conditions: ethanol TCM extract; Schaedler broth, two-fold dilutions, 24 hrs at 37° C.
Description: as §1, §2

S. mutans [4] = assay: Minimum Bactericidal Concentration (MBC) test of TCM extracts on oral bacteria; conditions: transfer from non-turbid tubes to fresh growth media, 48 hrs
Description: as §1, §2

F. nucleatum [5] = assay: as above; conditions: transfer from non-turbid tubes to fresh growth media, 48 hrs
Description: as §1, §2

P. gingivalis [6] = assay: as above; conditions: transfer from non-turbid tubes to fresh growth media, 48 hrs
Description: as §1, §2

N=C(NCCCCCCNC(=N)NC(=N)Nc1ccc(Cl)cc1)NC(=N)Nc1ccc(Cl)cc1.O=C(O)[C@H](O)[C@@H](O)[C@H](O)[C@H](O)CO.O=C(O)[C@H](O)[C@@H](O)[C@H](O)[C@H](O)CO [Chlorohexdine Gluconate]
MIC S. mutans (S. mutans [1]): 5 ng/mL | MIC F. nucleatum (F. nucleatum [2]): 5 ng/mL | MIC P. gingivalis (P. gingivalis [3]): 2.5 ng/mL | MBC S. mutans (S. mutans [4]): 10 ng/mL | MBC F. nucleatum (F. nucleatum [5]): 10 ng/mL | MBC P. gingivalis (P. gingivalis [6]): 5 ng/mL
